Results as given in patent US20100029702A1, “Method For Identification of Compound Having Anti-Anxiety Effect” (priority 2006, published 2010).

Target: T1, protein encoded by ph01207 (Homo sapiens, UniProt O60241, DEL308-362)
T1 construct: expressed in transfected cells; host or cells: CHO-K1 (HA-ph01207#10-6, FERM BP-10101), T8HA-attR/pCINeo
T1 sequence (O60241 with tags, fused parts or gaps DEL308-362): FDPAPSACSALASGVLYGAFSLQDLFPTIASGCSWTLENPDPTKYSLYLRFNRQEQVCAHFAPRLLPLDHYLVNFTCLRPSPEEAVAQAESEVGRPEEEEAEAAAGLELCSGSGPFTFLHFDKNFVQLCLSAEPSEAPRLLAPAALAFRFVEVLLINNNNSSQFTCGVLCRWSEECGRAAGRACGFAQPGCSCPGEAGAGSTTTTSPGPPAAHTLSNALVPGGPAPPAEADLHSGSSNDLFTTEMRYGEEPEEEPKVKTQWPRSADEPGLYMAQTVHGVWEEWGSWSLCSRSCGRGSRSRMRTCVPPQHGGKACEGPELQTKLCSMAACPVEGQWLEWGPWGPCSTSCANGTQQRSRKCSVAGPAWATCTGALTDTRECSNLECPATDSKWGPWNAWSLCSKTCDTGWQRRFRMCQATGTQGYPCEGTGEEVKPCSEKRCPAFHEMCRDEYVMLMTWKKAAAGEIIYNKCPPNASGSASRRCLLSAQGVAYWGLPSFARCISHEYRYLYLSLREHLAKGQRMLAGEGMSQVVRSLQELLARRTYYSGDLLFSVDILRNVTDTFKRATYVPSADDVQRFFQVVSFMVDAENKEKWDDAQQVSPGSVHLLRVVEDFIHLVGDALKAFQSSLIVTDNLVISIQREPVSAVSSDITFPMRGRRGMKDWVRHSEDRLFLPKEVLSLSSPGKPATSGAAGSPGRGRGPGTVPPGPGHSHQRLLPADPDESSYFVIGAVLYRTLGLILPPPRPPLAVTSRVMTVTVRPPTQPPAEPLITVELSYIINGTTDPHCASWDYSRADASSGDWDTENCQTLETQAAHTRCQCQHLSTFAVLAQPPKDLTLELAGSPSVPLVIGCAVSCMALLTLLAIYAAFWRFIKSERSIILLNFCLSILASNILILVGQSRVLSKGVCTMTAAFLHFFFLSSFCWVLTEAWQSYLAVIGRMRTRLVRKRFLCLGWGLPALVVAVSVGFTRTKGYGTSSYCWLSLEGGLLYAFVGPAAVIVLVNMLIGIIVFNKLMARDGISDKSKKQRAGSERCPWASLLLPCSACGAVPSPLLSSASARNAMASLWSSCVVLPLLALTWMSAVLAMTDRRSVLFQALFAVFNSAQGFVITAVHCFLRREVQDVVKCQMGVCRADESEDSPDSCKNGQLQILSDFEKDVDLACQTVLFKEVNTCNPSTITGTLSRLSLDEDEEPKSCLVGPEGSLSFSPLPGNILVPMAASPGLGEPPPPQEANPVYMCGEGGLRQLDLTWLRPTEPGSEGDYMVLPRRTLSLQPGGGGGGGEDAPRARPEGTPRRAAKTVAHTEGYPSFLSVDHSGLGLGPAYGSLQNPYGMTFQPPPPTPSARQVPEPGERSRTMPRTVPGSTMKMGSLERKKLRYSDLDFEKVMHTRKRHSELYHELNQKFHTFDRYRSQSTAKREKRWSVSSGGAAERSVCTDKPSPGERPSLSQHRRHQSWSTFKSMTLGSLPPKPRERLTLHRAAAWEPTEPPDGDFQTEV
Experiment: Changes in intracellular Ca2+ concentration in HA-ph01207#10-6 cell strain (CHO-K1 stably expressing ph01207)
Type: cell-based
Protocol: Changes in the intracellular calcium (Ca^2+) concentration induced by CCK-8S (SEQ ID NO: 14), CCK-8NS, or CCK-4 were measured using the cell strains expressing ph01207 prepared in Example 2. The cell strains prepared in Example 2 were eight strains that expressed the protein encoded by ph01207 as FLAG-tag fusion proteins and four strains that expressed the protein encoded by ph01207 as HA-tag fusion proteins. Of these, the HA-ph01207#10-6 cell strain, a strain obtained by cloning one of the cell strains that stably expressed the protein encoded by ph01207 as HA-tag fusion proteins, was used in this example. CCK-8NS was a CCK octapeptide having the same amino acid sequence as that of CCK-8S (SEQ ID NO: 14), but a region from the C terminus to the seventh tyrosine residue was not sulfated. CCK-4 was a tetrapeptide comprising residues from the C terminus to the fourth amino acid of CCK-8S (SEQ ID NO: 14).
The specific method for measuring changes in the intracellular Ca^2+ concentration in the HA-ph01207#10-6 cell strain induced by CCK-8S (SEQ ID NO: 14) and the results are described below. The HA-ph01207#10-6 cell strain was seeded on a 96-well plate (a plate with a black wall and a transparent bottom) at a cell count of 2×10^4/100 μL medium/well and cultured at 37° C. in the presence of 5% CO2. As a medium, DMEM/F12 (Gibco) containing 10% fetal calf serum (Moregate) was used. On the following day, 50 μL of the medium was removed from each well, 50 μL of a loading buffer was added to each well, and the mixture was reacted at room temperature for 1.5 h, so that a fluorescent dye contained in the loading buffer should be taken up into the cell. The loading buffer was prepared by dissolving component A of the FLIPR Calcium 3 Assay Kit (Molecular Device) in a solution obtained by adding 0.1 mL of 500 mM probenecid (Sigma) to 9.9 mL of component B. After reaction, changes over time in the fluorescence intensity in each well after addition of CCK-8S (Peptide Institute, Inc.) were measured using the FLEX station (Molecular Device). Furthermore, similar measurement was performed for CCK-8NS (Peptide Institute, Inc.) and CCK-4 (Peptide Institute, Inc.). 0.52 mg of CCK-8S (SEQ ID NO: 14) was dissolved in 4.5 mL of 1% NaHCO3 (Wako) to prepare a solution having 0.1 mM concentration. 0.53 mg of CCK-8NS was dissolved in 0.50 mL of dimethyl sulfoxide (DMSO, Sigma), and then 4.50 mL of redistilled water H2O was added to prepare a solution having 0.1 mM concentration. 0.54 mg of CCK-4 was dissolved in 0.46 mL of DMSO, 4.09 mL of redistilled water was added to prepare a solution having 0.2 mM concentration. […]

| Change in intracellular Ca2+ concentration (fluorescence intensity) (peptide at final concentration 1 nM) | Molecule | Change in intracellular Ca2+ concentration (fluorescence intensity) (A23187 10 μM, positive control) |
| --- | --- | --- |
| – | CNc1ccc2oc(C[C@H]3O[C@@]4(CC[C@H]3C)O[C@H]([C@H](C)C(=O)c3ccc[nH]3)[C@H](C)C[C@H]4C)nc2c1C(=O)O [A23187] | increased |
| increased | cholecystokinin octapeptide sulfated form [CCK-8S] | – |
